“And” between values parts separate entries of the source, which are not always exact repeats. Equal values may be shown once.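 All cell lines were grown in 96-well plates and treated with compound for 48 hours. Abbreviation: GI50, concentration required for 50% inhibition of growth. Definition used: TGI = concentration required for complete inhibition of growth.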
Columns and labels:
Assay in all cases: NCI tumour cell line growth inhibition, 48 h
HCT-15 colon = tested on: HCT-15 colon
HCC-2998 colon = tested on: HCC-2998 colon
RXF 393 renal = tested on: RXF 393 renal
UO-31 renal = tested on: UO-31 renal
HOP-92 NSCLC = tested on: HOP-92 NSCLC
CCRF-CEM leukemia = tested on: CCRF-CEM leukemia
HS 578T breast = tested on: HS 578T breast
PC-3 prostate = tested on: PC-3 prostate
SK-MEL-2 melanoma = tested on: SK-MEL-2 melanoma
LOX IMVI melanoma = tested on: LOX IMVI melanoma

| Compound | GI50 (HCT-15 colon) | TGI (HCT-15 colon) | GI50 (HCC-2998 colon) | TGI (HCC-2998 colon) | GI50 (RXF 393 renal) | TGI (RXF 393 renal) | GI50 (UO-31 renal) | TGI (UO-31 renal) | GI50 (HOP-92 NSCLC) | TGI (HOP-92 NSCLC) | GI50 (CCRF-CEM leukemia) | TGI (CCRF-CEM leukemia) | GI50 (HS 578T breast) | TGI (HS 578T breast) | GI50 (PC-3 prostate) | TGI (PC-3 prostate) | GI50 (SK-MEL-2 melanoma) | TGI (SK-MEL-2 melanoma) | GI50 (LOX IMVI melanoma) | TGI (LOX IMVI melanoma) |
| --- | --- | --- | --- | --- | --- | --- | --- | --- | --- | --- | --- | --- | --- | --- | --- | --- | --- | --- | --- | --- |
| OCC#CCOCC#Cc1ccccc1C#CCOCC#CCO | 20.9 µM | > 100 µM | 29 µM | 75.3 µM | 28.8 µM | 82.4 µM | > 100 µM | > 100 µM | 21.8 µM | > 100 µM | 18.5 µM | 57.1 µM | > 100 µM | > 100 µM | 22.5 µM | > 100 µM | > 100 µM | > 100 µM | – | – |
| CC[C@@]1(O)C(=O)OCc2c1cc1n(c2=O)Cc2cc3cc(Cl)ccc3nc2-1 | 0.0559 µM and 0.106 µM | 10.5 µM | 0.0277 µM and 0.0364 µM | 0.202 µM and 0.32 µM | 0.0106 µM | 0.137 µM | 0.00266 µM | 0.0816 µM | 0.0256 µM and 0.0415 µM | 1.32 µM and 0.709 µM | – | > 100 µM | 0.445 µM | – | 0.0427 µM | – | 0.169 µM and 0.187 µM | 0.677 µM and 0.691 µM | 0.00191 µM | – |
| O=C(COc1ccc(/C=C2\Oc3ccc4ccccc4c3C2=O)cc1)c1ccc([N+](=O)[O-])cc1 | 7.6 µM | 20.4 µM | 16.7 µM | 31.6 µM | 8.55 µM | 60.5 µM | 10.6 µM | 39.3 µM | 19.8 µM | 69.6 µM | 1.81 µM | 4.12 µM | 18.5 µM | 57 µM | 9.36 µM | 21.3 µM | 15.5 µM | 73.7 µM | 2.88 µM | 10.8 µM |
| O=CC(OC(=O)c1ccccc1)C(OC(=O)c1ccccc1)C(COC(c1ccccc1)(c1ccccc1)c1ccccc1)OC(=O)c1ccccc1 (stereo unspecified) | 16.6 µM | 43.1 µM | 17.4 µM | 31.5 µM | 4.11 µM | 21.1 µM | 10.8 µM | 31.2 µM | – | – | 2.21 µM | 7.26 µM | 33.2 µM | > 100 µM | 9.64 µM | 24.7 µM | 18.4 µM | 50.4 µM | 11 µM | 27.3 µM |
| O=c1cc(-c2ccc(Cl)cc2)[nH]c2ccccc12 | 12.9 µM | > 100 µM | > 100 µM | > 100 µM | 45.9 µM | > 100 µM | > 100 µM | > 100 µM | 64.2 µM | > 100 µM | – | – | 28.9 µM | > 100 µM | 35.2 µM | > 100 µM | > 100 µM | > 100 µM | 39.3 µM | > 100 µM |
| Cc1cccc(C(C)(C)C)c1NC(=O)C(C#N)C1=C(Cl)C(=O)c2ccccc2C1=O (stereo unspecified) | – | – | – | 29.7 µM | – | 30.6 µM | – | 27.9 µM | – | 9.68 µM | – | 10.7 µM | – | 52.5 µM | – | 26.3 µM | – | 30.7 µM | – | 30.7 µM |
| COc1ccc(-n2cc(-c3cc(OC)c(OC)c(OC)c3)nc2SCc2ccc(Cl)cc2)cc1OC | 30.5 µM | > 100 µM | > 100 µM | > 100 µM | > 100 µM | > 100 µM | 27.8 µM | > 100 µM | 65.5 µM | > 100 µM | > 100 µM | > 100 µM | 66.5 µM | > 100 µM | 35.3 µM | > 100 µM | > 100 µM | > 100 µM | > 100 µM | > 100 µM |
| C[C@H]1CCC/C=C/C2CC(OC(=O)CN(C)C)CC2C(OC(=O)CN(C)C)/C=C/C(=O)O1 (stereo partly specified) | 0.272 µM | > 32.4 µM | 0.215 µM | 0.537 µM | 0.0972 µM | 0.314 µM | 0.142 µM | 0.765 µM | 1.69 µM | 12.5 µM | 0.647 µM | > 40.6 µM | 30.1 µM | > 100 µM | 0.261 µM | > 100 µM | 0.224 µM | 3.79 µM | 1.16 µM | 2.67 µM |
| CC1(C)OB(c2ccc(N(CCOS(C)(=O)=O)CCOS(C)(=O)=O)cc2)OC1(C)C | 15.6 µM | 41 µM | 15.7 µM | 49 µM | 24.6 µM | > 67.4 µM | 16.5 µM | > 64.6 µM | 10.2 µM | 48.6 µM | 1.98 µM | > 39.6 µM | 32.3 µM | > 87 µM | 15.6 µM | > 79.7 µM | 28.6 µM | > 79.1 µM | 6.98 µM | > 53.3 µM |
| O=C1Cc2c(-c3ccccc3)cc(-c3ccccc3)nc2-c2ccccc2N1 | – | 4.4 µM | – | 11.5 µM | – | > 100 µM | – | 11.4 µM | – | > 100 µM | – | > 100 µM | – | 19 µM | – | 42.9 µM | – | 7.27 µM | – | > 100 µM |
| O=C(O)C1C2C=CC(O2)C1C(=O)NCc1cccnc1 (stereo unspecified) | – | > 100 µM | – | – | – | > 100 µM | – | > 100 µM | – | > 100 µM | – | > 100 µM | – | > 100 µM | – | > 100 µM | – | > 100 µM | – | > 100 µM |
| COc1ccccc1-n1cnc(N)c1C(=O)c1cc(OC)c(OC)c(OC)c1 | 3.36 µM | > 100 µM | 6.8 µM | > 100 µM | 2.19 µM | 64.5 µM | 4.21 µM | > 100 µM | 43.8 µM | > 100 µM | 2.69 µM | > 100 µM | 2.16 µM | 7.69 µM | 3.51 µM | > 100 µM | – | – | 6.39 µM | > 100 µM |
| COc1ccc(-c2nn(-c3cccc(Cl)c3)cc2/C=C2\NC(=S)N(c3ccc(Cl)cc3)C2=O)cc1 | 7.94 µM | > 25 µM | 7.93 µM | > 25 µM | 3.02 µM | 9.97 µM | 8.53 µM | > 25 µM | 1.84 µM | 8.07 µM | 2.98 µM | 11 µM | 4.14 µM | 24.1 µM | 5.37 µM | 21.6 µM | 4.15 µM | 9.61 µM | 5.97 µM | > 25 µM |
| N#Cc1ncc(C(Cl)Cl)nc1Cl | – | 3.87 µM | – | 3.06 µM | – | 3.39 µM | – | 3.17 µM | – | 0.536 µM | – | > 6.15 µM | – | > 10 µM | – | 3.62 µM | – | 4.33 µM | – | 2.97 µM |
